# Experimental data from patent US9216977B2 (The University of North Carolina at Chapel Hill, priority 2009, dated 2015).
# Where two headings read alike, the source gives them in different places.
# What was measured:
# HCT-8 = assay: in vitro screen against human tumor cell line HCT-8 (colon), GI50; format: cell-based; settings: Homo sapiens
# A549 = assay: in vitro screen against human tumor cell line A549 (lung), GI50; format: cell-based
# DU145 = assay: in vitro screen against human tumor cell line DU-145 (prostate), GI50; format: cell-based
# KB = assay: in vitro screen against human tumor cell line KB (nasopharyngeal), GI50; format: cell-based; settings: read-out: GI50 KB
# [1] = system: panel of cancer cell lines including A549 (lung), DU-145 (prostate), KB (nasopharyngeal), and HCT-8 (colon)
# KBvin = assay: in vitro screen against KBvin cell line, GI50; format: cell-based
# SKBR = assay: in vitro screen against cancer cell line SKBR (breast), GI50; format: cell-based; settings: Example 3, Table 1
# [2] = HCT-8, Example 2, Table 3, 13-aza-cryptopleurines, read-out: GI50 HCT-8
# [3] = Homo sapiens, A549, Example 2, Table 3, 13-aza-cryptopleurines, read-out: GI50 A549
# [4] = Homo sapiens, DU-145, Example 2, Table 3, 13-aza-cryptopleurines, read-out: GI50 DU145
# [5] = Homo sapiens, KB, Example 2, Table 3, 13-aza-cryptopleurines
# [6] = Homo sapiens, KBVIN, Example 3, Table 1
# [7] = Homo sapiens, A549, Example 3, Table 1, read-out: GI50 A549
# [8] = Homo sapiens, DU-145, Example 3, Table 1, read-out: GI50 DU145
# [9] = Homo sapiens, KB, Example 3, Table 1
# [10] = HCT-8, Example 2, Table 4, 12-aza-cryptopleurines, read-out: GI50 HCT-8
# [11] = Homo sapiens, A549, Example 2, Table 4, 12-aza-cryptopleurines, read-out: GI50 A549
# [12] = Homo sapiens, DU-145, Example 2, Table 4, 12-aza-cryptopleurines, read-out: GI50 DU145
# [13] = Homo sapiens, KB, Example 2, Table 4, 12-aza-cryptopleurines
compound,measurement,setting,value
"COc1ccc2c3c(c4cc(OC)c(OC)cc4c2c1)C[C@H]1CN(C(C)=O)CCN1C3 [Compound 8d, (S)-13-aza-13N-acetyl-cryptopleurine]",melting point,,123 to 125 °C
same,GI50,"HCT-8; HCT-8, read-out: GI50 HCT-8",13800 nM
same,GI50,"A549; Homo sapiens, A549, read-out: GI50 A549",11600 nM
same,GI50,"DU145; Homo sapiens, DU-145, read-out: GI50 DU145",11900 nM
same,GI50,"KB; Homo sapiens, KB",15500 nM
"COC(=O)CN1CCN2Cc3c(c4cc(OC)c(OC)cc4c4cc(OC)ccc34)C[C@H]2C1 [Compound 8f, (S)-13-aza-13N-methoxycarbonylmethyl-cryptopleurine]",melting point,,111 to 113 °C
same,GI50,HCT-8; [2],14000 nM
same,GI50,A549; [3],14700 nM
same,GI50,DU145; [4],20800 nM
same,GI50,KB; [5],14600 nM
"COc1ccc2c3c(c4cc(OC)c(OC)cc4c2c1)C[C@H]1CN(CC2CC2)CCN1C3 [Compound 8g, (S)-13-aza-13N-cyclopropylmethyl-cryptopleurine]",melting point,,160 to 162 °C
same,GI50,HCT-8; [2],250 nM
same,GI50,A549; [3],790 nM
same,GI50,DU145; [4],2940 nM
same,GI50,KB; [5],6570 nM
"COc1ccc2c3c(c4cc(OC)c(OC)cc4c2c1)C[C@H]1CN(C2CC2)CCN1C3 [Compound 8h, (S)-13-aza-13N-cyclopropyl-cryptopleurine]",melting point,,115 to 117 °C
same,GI50,HCT-8; [2],13000 nM
same,GI50,A549; [3],23200 nM
same,GI50,DU145; [4],17900 nM
same,GI50,KB; [5],23400 nM
"COc1ccc2c3c(c4cc(OC)c(OC)cc4c2c1)C[C@H]1CN(C(=O)c2ccccc2)CCN1C3 [Compound 8i, (S)-13-aza-13N-benzoyl-cryptopleurine]",melting point,,203 °C (dec.)
same,GI50,HCT-8; [2],18100 nM
same,GI50,A549; [3],15000 nM
same,GI50,DU145; [4],15700 nM
same,GI50,KB; [5],20100 nM
"COc1ccc2c3c(c4cc(OC)c(OC)cc4c2c1)C[C@H]1CN(CCO)CCN1C3 [Compound 8j, (S)-13-aza-13N-hydroxylethyl-cryptopleurine]",melting point,,266 °C (dec.)
same,GI50,HCT-8; [2],7410 nM
same,GI50,A549; [3],14100 nM
same,GI50,DU145; [4],12600 nM
same,GI50,KB; [5],8620 nM
"COc1ccc2c3c(c4cc(OC)c(OC)cc4c2c1)C[C@H]1C[C@@H](O)CN1C3 [Compound 9a, (12R,13aS)-12-hydroxyl-antofine]",range of cytotoxicity / anticancer activity in words,[1],middle nM to low μM range
same,activity of 12R isomer compared with 12S isomer (9b),[1]; Example 3,3 fold
same,GI50,KBvin; [6],640 nM
same,GI50,A549; [7],610 nM
same,GI50,DU145; [8],700 nM
same,GI50,KB; [9],780 nM
"COc1ccc2c3c(c4cc(OC)c(OC)cc4c2c1)C[C@H]1C[C@H](O)CN1C3 [Compound 9b, (12S,13aS)-12-hydroxyl-antofine]",range of cytotoxicity / anticancer activity in words,[1],middle nM to low μM range
same,GI50,KBvin; [6],2210 nM
same,GI50,A549; [7],2270 nM
same,GI50,DU145; [8],1800 nM
same,GI50,KB; [9],1810 nM
"COc1ccc2c3c(c4cc(OC)c(OC)cc4c2c1)C[C@H]1CCN(CCO)CN1C3 [Compound 11a, (S)-12-aza-12N-hydroxylethyl-cryptopleurine]",melting point,,138 to 140 °C
same,GI50,HCT-8; [10],10600 nM
same,GI50,A549; [11],5680 nM
same,GI50,DU145; [12],1990 nM
same,GI50,KB; [13],1590 nM
"COc1ccc2c3c(c4cc(OC)c(OC)cc4c2c1)C[C@H]1CCN(CC(C)C)CN1C3 [Compound 11c, (S)-12-aza-12N-isobutyl-cryptopleurine]",melting point,,177 to 179 °C
same,GI50,HCT-8; [10],1360 nM
same,GI50,"A549; Example 2, Table 4, 12-aza-cryptopleurines, read-out: GI50 A549",1520 nM
same,GI50,DU145; [12],2300 nM
same,GI50,"KB; Example 2, Table 4, 12-aza-cryptopleurines",5060 nM
"COc1ccc2c3c(c4cc(OC)c(OC)cc4c2c1)C[C@H]1CCN(Cc2ccccc2)CN1C3 [Compound 11d, (S)-12-aza-12N-benzyl-cryptopleurine]",melting point,,211 to 213 °C
same,GI50,HCT-8; [10],21300 nM
same,GI50,A549; [11],29900 nM
same,GI50,DU145; [12],> 40000 nM
same,GI50,KB; [13],> 40000 nM
"COc1ccc2c3c(c4cc(OC)c(OC)cc4c2c1)C[C@H]1C[C@@H](O)CCN1C3 [Compound 13a, (13S,14aS)-13-hydroxyl-eryptopleurine]",GI50,SKBR,295 nM
same,range of cytotoxicity / anticancer activity in words,[1],low nM range
same,GI50,KBvin; [6],78 nM
same,GI50,A549; [7],72 nM
same,GI50,DU145; [8],59 nM
same,GI50,KB; [9],43 nM
"COc1ccc2c3c(c4cc(OC)c(OC)cc4c2c1)C[C@H]1CCC(=O)CN1C3 [Compound 18, (R)-12-oxo-cryptopleurine]",GI50,SKBR,3340 nM
same,GI50,KBvin; [6],1480 nM
same,GI50,A549; [7],910 nM
same,GI50,DU145; [8],1700 nM
same,GI50,KB; [9],734 nM
"(14S,14aS)-11-oxo-14-hydroxyl-cryptopleurine [Compound 21a]",GI50,KBvin,25 nM
same,GI50,A549; read-out: GI50 A549,10 nM
same,GI50,DU145; read-out: GI50 DU145,33 nM
same,GI50,KB,25 nM
